Here are results for nine compounds from US7084163B2, “Heterocyclic carboxamides and their use as fungicides” (Bayer Cropscience S.A., priority 2001, dated 2006).

One data set has as its system Septoria tritici. As to the kind of experiment: In vivo test on Septoria tritici (leaf spot of wheat), preventive spray. The following applies: Zymoseptoria tritici; dose of 500 g/ha; wheat plants (Scipion variety); contaminated 24 hours after treatment; grading 15 to 20 days after contamination vs control plants; read-out: good (at least 50%) protection. On the procedure: (§1) An aqueous suspension, at a concentration of 1.5%, of the active material tested is obtained by grinding it finely in a formulation of concentrated suspension type. This aqueous suspension is then diluted in water so as to obtain the desired active material concentration. Wheat plants (Scipion variety) in starter cups, sown on a 50/50 peat soil-pozzolana substrate and grown at 12° C., are treated at the 1-leaf stage (10 cm tall) by spraying with the aqueous suspension described above. Plants, used as controls, are treated with an aqueous solution not containing the active material.
After 24 hours, the plants are contaminated by spraying them with an aqueous suspension of Septoria tritici spores (500,000 spores per mL). The spores are collected from a 15-day-old culture and are suspended in a nutrient solution composed of: • 1.5 g/L of gelatine • 0.5 g/L of sodium oleate • 24 g/L of PDB
The contaminated wheat plants are incubated for 72 hours at about 20° C. and at 100% relative humidity, and then for 15 days at 80% relative humidity.

For the next data set, the system named is Drechslera teres. As to the kind of experiment: In vivo test on Drechslera teres (barley net blotch), preventive spray. The following applies: Pyrenophora teres, 288 h; dose of 500 g/ha; barley plants (Express variety); contaminated 24 hours after treatment; grading 12 days after contamination vs control plants; read-out: good (at least 50%) protection. On the procedure: An aqueous suspension, at a concentration of 1.5%, of the active material. tested is obtained by grinding it finely in a formulation of concentrated suspension type. This aqueous suspension is then diluted in water so as to obtain the desired active material concentration. Barley plants (Express variety) in starter cups, sown on a 50/50 peat soil-pozzolana substrate and grown at 12° C., are treated at the 1-leaf stage (10 cm tall) by spraying with the aqueous suspension described above. Plants, used as controls, are treated with an aqueous solution not containing the active material.
After 24 hours, the plants are contaminated by spraying them with an aqueous suspension of Dreschslera teres spores (12,000 spores per mL). The spores are collected from a 12-day-old culture. The contaminated wheat plants are incubated for 24 hours at about 20° C. and at 100% relative humidity, and then for 12 days at 80% relative humidity.
Grading is carried out 12 days after the contamination, in comparison with the control plants. Under these conditions, good (at least 50%) protection is observed, at a dose of 500 g/ha, with the compounds described as example: 9, 13, 14, 15, 18, 20, 21, 22, 24, 26, 27, 30, 31, 32, 33, 34, 35, 36, 37, 41, 43, 45, 47, 49, 62, 69, 70, 72.

The test system of data set [1] is Erisyphe graminis f. sp. tritici. The data set is described as follows: In vivo test on Erisyphe graminis f. sp. tritici (powdery mildew of wheat), preventive spray. The following applies: Triticum aestivum; dose of 500 g/ha; wheat plants (Audace variety); contaminated 24 hours after treatment; grading 7 to 14 days after contamination vs control plants; read-out: good (at least 50%) or total protection. As to the method: as §1, with “(Audace” for “(Scipion”, “on” for “on a”, “soil-pozzulana” for “soil-pozzolana”, “material. After 24 hours, the plants are contaminated by dusting them with Erisyphe graminis f. sp. tritici spores, the dusting being carried out using diseased plants.” for “material.”

Another data set relates to Puccinia recondita. As to the kind of experiment: In vivo test on Puccinia recondita (wheat brown rust), preventive spray. Particulars: 240 h, dose of 500 g/ha, wheat plants (Scipion variety), contaminated 24 hours after treatment, grading 10 days after contamination vs control plants, read-out: good (at least 50%) protection. As to the method: An aqueous suspension, at a concentration of 1.5%, of the active material tested is obtained by grinding it finely in a formulation of concentrated suspension type, This aqueous suspension is then diluted in water so as to obtain the desired active material concentration. Wheat plants (Scipion variety) in starter cups, sown on a 50/50 peat soil-pozzolana substrate and grown at 12° C., are treated at the 1-leaf stage (10 cm tall) by spraying with the aqueous suspension described above. Plants, used as controls, are treated with an aqueous solution not containing the active material.
After 24 hours, the plants are contaminated by spraying them with an aqueous suspension of Puccinia recondita spores (150,000 spores per mL). The contaminated wheat plants are incubated for 24 hours at about 20° C. and at 100% relative humidity, and then for 10 days at 70% relative humidity.
Grading is carried out 10 days after the contamination, in comparison with the control plants. Under these conditions, good (at least 50%) protection is observed, at a dose of 500 g/ha, with the following compounds described as example: 6, 10, 11, 12, 13, 14, 15, 28, 29, 30, 31, 34, 37, 42, 45, 46, 50, 51, 52, 62, 72.

The next data set relates to Rhynchosporium secalis. As to the kind of experiment: In vivo test on Rhynchosporium secalis (barley leaf scald), preventive spray. Particulars: dose of 500 g/ha; barley plants (Express or Barrack variety); contaminated 24 hours after treatment; grading 12/14 days after contamination vs control plants. As to the method: An aqueous suspension, at a concentration of 1.5%, of the active material tested is obtained by grinding it finely in a formulation of concentrated suspension type. This aqueous suspension is then diluted in water so as to obtain the desired active material concentration. Barley plants (Express or Barrack variety) in starter cups, sown on a 50/50 peat soil-pozzolana substrate and grown at 12° C., are treated at the 1-leaf stage (10 cm tall) by spraying with the aqueous suspension described above. Plants, used as controls, are treated with an aqueous solution not containing the active material.
After 24 hours, the plants are contaminated by spraying them with an aqueous suspension of Rhynchosporium secalis spores (800,000 spores per mL). The contaminated wheat plants are incubated for 48 hours at about 20° C. and at 100% relative humidity, and then for 12/14 days at 80% relative humidity.
Grading is carried out 12/14 days after the contamination, in comparison with the control plants. Under these conditions, good (at least 50%) protection is observed, at a dose of 500 g/ha, with the following compound described as example: 32.

Take `CCCCOc1ccc(NC(=O)c2c(O)c(N)cn2C)cc1` [compound 9, 1-Methyl-4-amino-3-hydroxy-1H-N-(4-butoxy-phenyl)pyrrole-2-carboxamide]: the pest or weed control at 500 g/ha in the data set with Septoria tritici and in the data set with Drechslera teres was no less than 50% in each case.

With `COc1c(C(=O)Nc2ccc(Oc3ccc(C(F)(F)F)cc3)cc2)cn(C)c1C(=O)O` [compound 13, 1-methyl-2-hydroxycarbonyl-3-methoxy-1H-N-para-[4-(trifluoromethyl)phyenoxy]phenyl-pyrrole-4-carboxamide], the pest or weed control at 500 g/ha (in the data set with Drechslera teres; in data set [1]; in the data set on Puccinia recondita) was no less than 50% in each case.

Take `COc1c(C(=O)Nc2ccc(Oc3ccc(C(F)(F)F)cc3)cc2)cn(C)c1N` [compound 14, 1-methyl-2-amino-3-methoxy-1H-N-para-[4-(trifluoromethyl)phenoxy]phenyl-pyrrole-4-carboxamide]: the pest or weed control at 500 g/ha (with Drechslera teres; in data set [1]; with Puccinia recondita) was no less than 50% each time.

On to `CCOC(=O)c1c(O)c(C(=O)Nc2ccc(Oc3ccc(C(F)(F)F)cc3)cc2)cn1C` [compound 15, 1-methyl-2-ethoxycarbonyl-3-hydroxy-1H-N-para-[4-(trifluoromethyl)phenoxy]phenyl-pyrrole-4-carboxamide], for which the pest or weed control at 500 g/ha (in the data set on Septoria tritici; in the data set on Drechslera teres; in data set [1]; in the data set on Puccinia recondita) was no less than 50% each time.

In the case of `Nc1noc(C(=O)Nc2ccc(Oc3ccc(C(F)(F)F)cc3)cc2)c1O` [compound 32, 3-Amino4-hydroxy-N-para-[4-(trifluoromethyl)phenoxy]phenylisoxazole-5-carboxamide], the pest or weed control at 500 g/ha (with Septoria tritici; in the data set on Drechslera teres; in data set [1]) was no less than 50% in each case. The “good (at least 50%) protection” value with Rhynchosporium secalis is “at least 50%”.

`Nc1cncc(C(=O)Nc2ccc(Oc3cccc(C(F)(F)F)c3)cc2)c1O` [compound 45, 5-amino-4-hydroxy-N-para-[3-(trifluoromethyl)phenoxy]phenyl nicotinamide]: the pest or weed control at 500 g/ha (with Septoria tritici; in the data set with Drechslera teres; in data set [1]; in the data set on Puccinia recondita) was no less than 50% each time.

Take `COC(=O)c1cncc(C(=O)Nc2ccc(Oc3ccc(C(F)(F)F)c(Cl)c3)cc2)c1OC` [compound 49, 5-methoxycarbonyl-4-methoxy-N-para-[3-chloro-4-(trifluoromethyl)phenoxy]phenyl nicotinamide]: the pest or weed control at 500 g/ha (in the data set on Septoria tritici; in the data set with Drechslera teres; in data set [1]) was no less than 50% each time.

Regarding `CCCCOc1ccc(NC(=O)c2occc(=O)c2O)cc1` [compound 59, N-(4-Butyloxy-phenyl)-2-(3-hydroxy-γ-pyranone)-carboxamide], the melting point fell in the range of 203 to 204 °C. For the same compound, in the data set on Septoria tritici, the pest or weed control at 500 g/ha was no less than 50%. In data set [1], the pest or weed control at 500 g/ha was no less than 50%.

On to `CC(C)N1CC(C(=O)Nc2ccc(Oc3ccccc3)cc2)=C(O)C1=O` [compound 72, N-4-(phenoxy)phenyl-(1-N-isopropyl-4-hydroxy-5-dioxo-2,5-dihydro-1H)-pyrrol-3-carboxamide], for which the pest or weed control at 500 g/ha with Septoria tritici, with Drechslera teres and in the data set with Puccinia recondita was no less than 50% each time.
